Measured values taken from patent US8349553B2, “Jasmonate based assays for identifying compounds that selectively inhibit mitochondrial bound hexokinases” (Ramot at Tel Aviv University Ltd., priority 2007, dated 2013).

Tests used:
[1] = test system: HKI and HKII (mitochondrial fraction of Molt-4 cells); experiment: Western blot of supernatants with anti-HKI and anti-HKII, Molt-4 mitochondrial fraction; assay type: biochemical, human; settings: Molt-4 mitochondrial fraction supernatant
Method: For analysis of hexokinase levels, the experiments were performed similarly to hexokinase detachment assay described above, and unbound hexokinase in the supernatant fraction was extracted as described in Fingrut (2005). Samples were separated by sodium dodecylsulfate-polyacrylamide gel (7%) electrophoresis followed by immunoblotting. The blots were probed with specific anti-HKI or anti-HKII antibodies (1:300, Santa-Cruz Biotechnology, CA, USA). Hexokinase-antibody complexes were stained with HRP-conjugated antibody (1:10,000, Santa-Cruz Biotechnology, CA, USA). Enhanced chemiluminescence (ECL) reagent (Biological Industries, Beit Haemek, Israel) was added, and the blots were exposed to ECL film (Eastman Kodak, Rochester, N.Y., USA). Hexokinase detachment from mitochondrial fraction is not limited to CT-26 colon carcinoma. Mitochondrial fractions isolated from different cancer cells, namely Molt-4 cells, BCL-1 leukemic cells and B16 melanoma tumors were incubated for 30 minutes at 37° C., and the activity of unbound hexokinase was measured and compared to the activity of spontaneously (control) detached hexokinase. […] The supernatant of the experiments were separated on SDS-PAGE and probed with anti-HKI and anti-HKII antibodies.

Molt-4 cells = experiment: Cellular ATP levels (CellTiter-Glo), Molt-4; assay type: cell-based, human; settings: 60 minutes of exposure, various concentrations
Method: The CellTiter-Glo™ Luminescent Cell Viability Assay (Promega, Madison, Wis., U.S.A.) was employed (Fingrut, 2005). Upon completion of a given experiment, plates were equilibrated to room temperature. CellTiter-Glo™ reagent containing luciferin and luciferase was added to each well and the plates were mixed on an orbital shaker for 2 minutes to induce cell lysis. In the presence of ATP, Mg^2+ and molecular oxygen, mono-oxidation of luciferin is catalyzed by luciferase, generating a luminescence signal. Cells were then incubated for 10 minutes at room temperature to stabilize the luminescence signal. Luminescence was recorded using Kodak digital science—Image station 440 CD. Luminescence is directly proportional to ATP concentration. ATP depletion (% of control) was calculated in the following way: {(luminescence of control cells−luminescence of drug-treated cells)/luminescence of control cells}×100. In order to test the correlation between cellular ATP levels and the release of hexokinase from mitochondrial fraction different cancer cells, namely Molt-4 cells, BCL-1 leukemic cells and B16 melanoma tumors were exposed to various methyl jasmonate concentrations. […] CT26 and Molt-4 cells were then seeded in 24 well plates. CT26 cells were allowed to adhere over night. Cells were exposed to methyl jasmonate (MJ; 3 mM) for 1 hour. Trypan blue exclusion test was performed and cells were counted.

CT26 cells = experiment: Trypan blue exclusion test, CT26; assay type: cell-based, murine; settings: 3 mM, 1 hour
Method: Cell death was determined by trypan blue exclusion. […] Alternatively, cytotoxicity was determined using hemacolor staining. […] In order to test the correlation between cellular ATP levels and the release of hexokinase from mitochondrial fraction different cancer cells, namely Molt-4 cells, BCL-1 leukemic cells and B16 melanoma tumors were exposed to various methyl jasmonate concentrations. […] CT26 and Molt-4 cells were then seeded in 24 well plates. CT26 cells were allowed to adhere over night. Cells were exposed to methyl jasmonate (MJ; 3 mM) for 1 hour. Trypan blue exclusion test was performed and cells were counted.

[2] = test system: mitochondrial fraction of mouse liver; experiment: Mitochondrial swelling assay, mouse liver; assay type: biochemical; settings: 1 mM
Method: Freshly isolated mitochondrial fraction was washed with extraction buffer to remove EDTA and resuspended in swelling buffer (Mannitol 220 mM, Sucrose 70 mM, Tris, pH 7.2, 150 mM, KH2PO4, pH 7.2, 0.2 mM; 0.2 mg in 100 μL) freshly supplemented with potassium succinate, pH 7.2, 5 mM. Every component was sodium-free. Optical density was monitored at the wave length of 540 nm for 2-5 minutes before the addition of the examined reagents, e.g. methyl jasmonate, and for additional 20 minutes afterwards.
In order to examine the consistency of the relationship between the ability of methyl jasmonate to detach bound hexokinase and mitochondrial damage, methyl jasmonate was tested in mouse brain in comparison to mouse liver. The comparison was performed due to known differences of mitochondrial hexokinase content between mouse brain vs. its liver. It is well established in the art that brain mitochondrial fraction is rich in bound hexokinase, while liver mitochondrial fraction is essentially devoid of it (Wilson, 1995). […] Mitochondrial fractions were incubated for either 10, 30 or 60 minutes at 37° C. The activity of unbound hexokinase was measured and compared to the activity of spontaneously (control) detached hexokinase. Consequently, the ability of methyl jasmonate to induce swelling in mitochondrial fraction isolated from mouse brain and liver was tested.

[3] = test system: CT26 cells transfected with pcDNA3-HKII or pcDNA3; experiment: ATP depletion in CT26 cells over-expressing hexokinase II; assay type: cell-based, murine; settings: 60 minutes exposure
Method: The CellTiter-Glo™ Luminescent Cell Viability Assay (Promega, Madison, Wis., U.S.A.) was employed (Fingrut, 2005). Upon completion of a given experiment, plates were equilibrated to room temperature. CellTiter-Glo™ reagent containing luciferin and luciferase was added to each well and the plates were mixed on an orbital shaker for 2 minutes to induce cell lysis. In the presence of ATP, Mg^2+ and molecular oxygen, mono-oxidation of luciferin is catalyzed by luciferase, generating a luminescence signal. Cells were then incubated for 10 minutes at room temperature to stabilize the luminescence signal. Luminescence was recorded using Kodak digital science—Image station 440 CD. Luminescence is directly proportional to ATP concentration. ATP depletion (% of control) was calculated in the following way: {(luminescence of control cells−luminescence of drug-treated cells)/luminescence of control cells}×100.

With `CC/C=C\CC1C(=O)CCC1CC(=O)OC` (centres unmarked) [methyl jasmonate] the “detachment of hexokinase confirmed by immunoblot (anti-HKI, anti-HKII)” value [1] was “detachment of hexokinase from mitochondrial fraction of the various cancer cells was further confirmed”, the “cellular ATP level” value (Molt-4 cells) was “significant and dose-dependent decrease of cellular ATP” and the “live/dead cells by Trypan blue exclusion” value (CT26 cells) was “still alive after 60 minutes”. The “mitochondrial swelling (optical density at 540 nm)” value [2] was “not in liver” and the “depletion of cellular ATP levels, hexokinase II over-expressing vs. control cells” value [3] was “decreased in cells with higher expression of hexokinase II”.
